In experiment [1] the test system is MiaPaCa-2 human pancreatic cancer cells. The experiment in a line: Cell proliferation, IncuCyte Live-Cell Analysis system. The format is cell-based. An excerpt: FIG. 7. Effects of HU and Mito10-HU on proliferation of MiaPaCa-2 human pancreatic cancer cells; MiaPaCa-2 cells treated with HU or Mito10-HU were monitored in the IncuCyte Live-Cell Analysis system. Cell proliferation was monitored in real-time with the continuous presence of indicated treatments until the end of each experiment. Data shown are the means±SD.
The following cell lines were obtained from the American Type Culture Collection (Manassas, VA), where they were regularly authenticated: HCT116 (ATCC Cat #CRL-247, human colon cancer cells) and MiaPaCa-2 (ATCC Cat #CRL-1420, human pancreatic cancer cells). All cells were cultured in a humidified incubator at 37° C. and 5% carbon dioxide. HCT116 cells were maintained in RPMI 1640 medium (Thermo Fisher Scientific, Cat #11875), supplemented with 10% fetal bovine serum. MiaPaCa-2 cells were maintained in Dulbecco's Modified Eagle Medium (Thermo Fisher Scientific, Waltham, MA; Cat #11965) supplemented with 10% fetal bovine serum. All cells were stored in liquid nitrogen and used within 20 passages after thawing.
The IncuCyte Live-Cell Analysis system (Essen Bioscience Inc., Ann Arbor, MI) was used to monitor cell proliferation (Cheng et al., 2013, 2016; Boyle et al., 2018). As shown in previous publications (Cheng et al., 2013, 2016), this imaging system is probe-free and noninvasive, and enables continuous monitoring of cell confluence over several days. The increase in the percentage of cell confluence was used as a surrogate marker of cell proliferation. In a 96-well plate, cells were plated at 1,000 cells per well in triplicates and left to adhere overnight. Cells were then treated with HU and Mito-HUs, and the cell confluency was recorded over several days in the IncuCyte Live-Cell Analysis system.

In experiment [2] the test system is mitochondrial complex III. The experiment is described as follows: Complex III-dependent oxygen consumption (OCR), Seahorse XF-96, HCT116 cells. The format is cell-based, human. Conditions: 24 hr, HCT116, n = 4. In outline: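 HCT116 cells were treated with compound for 24 hr, then acutely permeabilized. OCR was read on a Seahorse XF-96 in mannitol/sucrose buffer. Complex I: 10 mM pyruvate/1.5 mM malate plus 10 mM malonate. Complex III: 0.5 mM duroquinol with […] and 10 mM malonate. IC50 was fitted to rotenone- or antimycin A-inhibitable OCR.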

In experiment [3] the test system is HCT116 human colon cancer cells. The experiment in a line: Cell proliferation (cell confluence), IncuCyte Live-Cell Analysis system. The format is cell-based.

The values that follow come from US20240109925A1, “Enhanced Anti-Proliferative and Antitumor Immune Effects of Mitochondria-Targeted Hydroxyurea” (The Medical College of Wisconsin, Inc., priority 2021, published 2024).

For the molecule `NC(=O)NOCCCCCCCCCCCC[P+](c1ccccc1)(c1ccccc1)c1ccccc1.O=C([O-])C(F)(F)F` [Mito12-HU, 12-[(carbamoylamino)oxy]-dodecyltriphenylphosphonium trifluoroacetate], the “inhibition of proliferation of MiaPaCa-2 cells” value (“inhibition” below) in experiment [1] is “increasing antiproliferative potencies”. The “Complex III activity (OCR, % of control)” value is 74.02 % of control in experiment [2] (1.5 μM); 55.15 % of control in experiment [2] (2 μM); 51.26 % of control in experiment [2] (2.5 μM); 35.02 % of control in experiment [2] (4 μM); 24.56 % of control in experiment [2] (7.5 μM).

As to `NC(=O)NOCCCCCCCCCC[P+](c1ccccc1)(c1ccccc1)c1ccccc1.O=C([O-])C(F)(F)F` [Mito10-HU, 10-[(carbamoylamino)oxy]-decyltriphenylphosphonium trifluoroacetate], in experiment [1], the “inhibition” value is given as “increasing antiproliferative potencies” and the “potency compared with HU in inhibiting MiaPaCa-2 cell proliferation” value is reported as about 100 times. Also, in experiment [3] (Mito10-HU (5 μM) or AZD-3965 (100 μM) independently, HCT-116), the “antiproliferative effect, each alone (AZD-3965 experiment)” value is “negligible antiproliferative effects”. Moreover, the “effect on cell proliferation, each alone (syrosingopine experiment)” value in experiment [3] (Mito10-HU (5 μM) or syrosingopine (7.5 μM) independently, HCT116) is “minimally affected cell proliferation”.

In the case of `NC(=O)NOCCCCCCCCCCCCCCCC[P+](c1ccccc1)(c1ccccc1)c1ccccc1.O=C([O-])C(F)(F)F` [Mito16-HU, 16-[(carbamoylamino)oxy]-hexadecyltriphenylphosphonium trifluoroacetate], the “inhibition” value in experiment [1] was “increasing antiproliferative potencies”. Moreover, the “Complex III activity (OCR, % of control)” value in experiment [2] (0.4 μM) was 81.38 % of control; in experiment [2] (0.5 μM), 79.37 % of control; in experiment [2] (0.6 μM), 80.12 % of control; in experiment [2] (0.8 μM) it was 68.47 % of control.

Regarding `NC(=O)NOCCCCCCCCCCCCCCCCCCCC[P+](c1ccccc1)(c1ccccc1)c1ccccc1.O=C([O-])C(F)(F)F` [Mito20-HU, 20-[(carbamoylamino)oxy]-eicosanyltriphenylphosphonium trifluoroacetate], the “inhibition” value in experiment [1] is listed as “increasing antiproliferative potencies”. The “Complex III activity (OCR, % of control)” value in experiment [2] (0.03 μM) is 98.80 % of control; in experiment [2] (0.1 μM), 106.63 % of control; in experiment [2] (0.2 μM) it was 101.11 % of control; in experiment [2] (0.3 μM), 107.99 % of control; in experiment [2] (0.5 μM), 102.43 % of control; in experiment [2] (20 μM), 12.77 % of control.
